{"source": "patent EP0067666A1", "about": "“Salts of antimicrobial naphthyridine and quinoline compounds and their production” (priority 1981, dated 1982)", "key": {"Strep. pyogenes C-203": {"system": "Strep. pyogenes C-203", "assay": "Antibacterial activity, MIC", "assay_type": "cell-based", "settings": "based on content of compound A"}, "Klebs. pneumoniae MGH-2": {"system": "Klebs. pneumoniae MGH-2", "assay": "Antibacterial activity, MIC", "assay_type": "cell-based", "settings": "based on content of compound A"}, "E. coli Vogel": {"system": "E. coli Vogel", "assay": "Antibacterial activity, MIC", "assay_type": "cell-based", "settings": "based on content of compound A"}, "Staph. aureus UC-76": {"system": "Staph. aureus UC-76", "assay": "Antibacterial activity, MIC", "assay_type": "cell-based", "settings": "based on content of compound A"}, "Entero cloacae MA 2646": {"system": "Entero cloacae MA 2646", "assay": "Antibacterial activity, MIC", "assay_type": "cell-based", "settings": "based on content of compound A"}, "Pseudo. aeruginosa UI-18": {"system": "Pseudo. aeruginosa UI-18", "assay": "Antibacterial activity, MIC", "assay_type": "cell-based", "settings": "based on content of compound A"}, "Strep. faecalis MGH-2": {"system": "Strep. faecalis MGH-2", "assay": "Antibacterial activity, MIC", "assay_type": "cell-based", "settings": "based on content of compound A"}, "Strep. pneumoniae SV-1": {"system": "Strep. pneumoniae SV-1", "assay": "Antibacterial activity, MIC", "assay_type": "cell-based", "settings": "based on content of compound A"}, "Proteus retgeri M 1771": {"system": "Proteus retgeri M 1771", "assay": "Antibacterial activity, MIC", "assay_type": "cell-based", "settings": "based on content of compound A"}, "Staph. aureus H 228": {"system": "Staph. aureus H 228", "assay": "Antibacterial activity, MIC", "assay_type": "cell-based", "settings": "based on content of compound A"}, "[1]": {"system": "Klebsiella pneumoniae MGH-2", "assay": "Acute mouse protection test", "assay_type": "in vivo", "settings": "single dose given at time of challenge, compound A series"}, "Escherichia coli Vogel": {"system": "Escherichia coli Vogel", "assay": "Acute mouse protection test", "assay_type": "in vivo", "settings": "single dose given at time of challenge, compound A series"}}}
{"smiles": "CCn1cc(C(=O)O)c(=O)c2cc(F)c(N3CCNCC3)cc21", "note": "[A Aspartate]", "values": [{"measurement": "MIC µg/ml Strep. pyogenes C-203", "setting": "Strep. pyogenes C-203", "result": 0.8, "unit": "µg/mL"}, {"measurement": "MIC µg/ml Klebs. pneumoniae MGH-2", "setting": "Klebs. pneumoniae MGH-2", "result": 0.2, "unit": "µg/mL"}, {"measurement": "MIC µg/ml E. coli Vogel", "setting": "E. coli Vogel", "result": "<0.1", "unit": "µg/mL"}, {"measurement": "MIC µg/ml Staph. aureus UC-76", "setting": "Staph. aureus UC-76", "result": "<0.1", "unit": "µg/mL"}, {"measurement": "MIC µg/ml Entero cloacae MA 2646", "setting": "Entero cloacae MA 2646", "result": 0.1, "unit": "µg/mL"}, {"measurement": "MIC µg/ml Pseudo. aeruginosa UI-18", "setting": "Pseudo. aeruginosa UI-18", "result": "<0.1", "unit": "µg/mL"}, {"measurement": "MIC µg/ml Strep. faecalis MGH-2", "setting": "Strep. faecalis MGH-2", "result": 1.6, "unit": "µg/mL"}, {"measurement": "MIC µg/ml Strep. pneumoniae SV-1", "setting": "Strep. pneumoniae SV-1", "result": 1.6, "unit": "µg/mL"}, {"measurement": "MIC µg/ml Proteus retgeri M 1771", "setting": "Proteus retgeri M 1771", "result": "<0.1", "unit": "µg/mL"}, {"measurement": "MIC µg/ml Staph. aureus H 228", "setting": "Staph. aureus H 228", "result": 0.8, "unit": "µg/mL"}]}
{"smiles": "CCn1cc(C(=O)O)c(=O)c2cc(F)c(N3CCNCC3)cc21", "note": "[A Galacturo-nate]", "values": [{"measurement": "MIC µg/ml Strep. pyogenes C-203", "setting": "Strep. pyogenes C-203", "result": 0.8, "unit": "µg/mL"}, {"measurement": "MIC µg/ml Klebs. pneumoniae MGH-2", "setting": "Klebs. pneumoniae MGH-2", "result": 0.1, "unit": "µg/mL"}, {"measurement": "MIC µg/ml E. coli Vogel", "setting": "E. coli Vogel", "result": "<0.1", "unit": "µg/mL"}, {"measurement": "MIC µg/ml Staph. aureus UC-76", "setting": "Staph. aureus UC-76", "result": "<0.1", "unit": "µg/mL"}, {"measurement": "MIC µg/ml Entero cloacae MA 2646", "setting": "Entero cloacae MA 2646", "result": 0.1, "unit": "µg/mL"}, {"measurement": "MIC µg/ml Pseudo. aeruginosa UI-18", "setting": "Pseudo. aeruginosa UI-18", "result": 0.1, "unit": "µg/mL"}, {"measurement": "MIC µg/ml Strep. faecalis MGH-2", "setting": "Strep. faecalis MGH-2", "result": 1.6, "unit": "µg/mL"}, {"measurement": "MIC µg/ml Strep. pneumoniae SV-1", "setting": "Strep. pneumoniae SV-1", "result": 1.6, "unit": "µg/mL"}, {"measurement": "MIC µg/ml Proteus retgeri M 1771", "setting": "Proteus retgeri M 1771", "result": "<0.1", "unit": "µg/mL"}, {"measurement": "MIC µg/ml Staph. aureus H 228", "setting": "Staph. aureus H 228", "result": 0.8, "unit": "µg/mL"}]}
{"smiles": "CCn1cc(C(=O)O)c(=O)c2cc(F)c(N3CCNCC3)cc21", "note": "[A Gluconate]", "values": [{"measurement": "MIC µg/ml Strep. pyogenes C-203", "setting": "Strep. pyogenes C-203", "result": 0.8, "unit": "µg/mL"}, {"measurement": "MIC µg/ml Klebs. pneumoniae MGH-2", "setting": "Klebs. pneumoniae MGH-2", "result": 0.2, "unit": "µg/mL"}, {"measurement": "MIC µg/ml E. coli Vogel", "setting": "E. coli Vogel", "result": "<0.1", "unit": "µg/mL"}, {"measurement": "Single po Dose PD50 (mg/kg) ± 95% Confidence Limits Klebsiella pneumoniae MGH-2", "setting": "[1]; oral", "result": "13 ± 6", "unit": "mg/kg"}, {"measurement": "Single sc Dose PD50 (mg/kg) ± 95% Confidence Limits Klebsiella pneumoniae MGH-2", "setting": "[1]; subcutaneous", "result": "1.4 ± 0.3", "unit": "mg/kg"}, {"measurement": "MIC µg/ml Staph. aureus UC-76", "setting": "Staph. aureus UC-76", "result": 0.2, "unit": "µg/mL"}, {"measurement": "MIC µg/ml Entero cloacae MA 2646", "setting": "Entero cloacae MA 2646", "result": 0.2, "unit": "µg/mL"}, {"measurement": "MIC µg/ml Pseudo. aeruginosa UI-18", "setting": "Pseudo. aeruginosa UI-18", "result": 0.2, "unit": "µg/mL"}, {"measurement": "Single po Dose PD50 (mg/kg) ± 95% Confidence Limits Escherichia coli Vogel", "setting": "Escherichia coli Vogel; oral", "result": "3.9 ± 0.9", "unit": "mg/kg"}, {"measurement": "Single sc Dose PD50 (mg/kg) ± 95% Confidence Limits Escherichia coli Vogel", "setting": "Escherichia coli Vogel; subcutaneous", "result": "0.5 ± 0.1", "unit": "mg/kg"}, {"measurement": "MIC µg/ml Strep. faecalis MGH-2", "setting": "Strep. faecalis MGH-2", "result": 0.8, "unit": "µg/mL"}, {"measurement": "MIC µg/ml Strep. pneumoniae SV-1", "setting": "Strep. pneumoniae SV-1", "result": 1.6, "unit": "µg/mL"}, {"measurement": "MIC µg/ml Proteus retgeri M 1771", "setting": "Proteus retgeri M 1771", "result": "<0.1", "unit": "µg/mL"}, {"measurement": "MIC µg/ml Staph. aureus H 228", "setting": "Staph. aureus H 228", "result": 1.6, "unit": "µg/mL"}]}
{"smiles": "CCn1cc(C(=O)O)c(=O)c2cc(F)c(N3CCNCC3)cc21", "note": "[A Glutamate]", "values": [{"measurement": "MIC µg/ml Strep. pyogenes C-203", "setting": "Strep. pyogenes C-203", "result": 0.8, "unit": "µg/mL"}, {"measurement": "MIC µg/ml Klebs. pneumoniae MGH-2", "setting": "Klebs. pneumoniae MGH-2", "result": 0.1, "unit": "µg/mL"}, {"measurement": "MIC µg/ml E. coli Vogel", "setting": "E. coli Vogel", "result": "<0.1", "unit": "µg/mL"}, {"measurement": "MIC µg/ml Staph. aureus UC-76", "setting": "Staph. aureus UC-76", "result": "<0.1", "unit": "µg/mL"}, {"measurement": "MIC µg/ml Entero cloacae MA 2646", "setting": "Entero cloacae MA 2646", "result": "<0.1", "unit": "µg/mL"}, {"measurement": "MIC µg/ml Pseudo. aeruginosa UI-18", "setting": "Pseudo. aeruginosa UI-18", "result": 0.1, "unit": "µg/mL"}, {"measurement": "MIC µg/ml Strep. faecalis MGH-2", "setting": "Strep. faecalis MGH-2", "result": 1.6, "unit": "µg/mL"}, {"measurement": "MIC µg/ml Strep. pneumoniae SV-1", "setting": "Strep. pneumoniae SV-1", "result": 1.6, "unit": "µg/mL"}, {"measurement": "MIC µg/ml Proteus retgeri M 1771", "setting": "Proteus retgeri M 1771", "result": 0.1, "unit": "µg/mL"}, {"measurement": "MIC µg/ml Staph. aureus H 228", "setting": "Staph. aureus H 228", "result": 1.6, "unit": "µg/mL"}]}
